Patent EP2698384A1, “Detection of synthetic cannabinoids” (priority 2012, dated 2014)
Where two headings read alike, the source gives them in different places.

Key:
Type in all cases: binding, sheep
Antibody to Immunogen V = conditions: Cross-reactants at 100 ng/ml, 1000ng/ml, single level of cross reactants
Procedure: (§1) The wells of an enhanced binding 96 well polystyrene microtiter plate were coated with IgG fraction of antiserum raised to Immunogen VI, diluted in 10mM Tris, pH8.5 (125µl/well). The appropriate antibody coating dilution was determined using standard ELISA checkerboard techniques. The plate was incubated overnight at 4°C, washed 4 times over 10 minutes with Tris buffered saline containing Tween 20 (TBST) and tapped dry. Standard solutions of RCS-4 were prepared in TBST at 0, 0.3125, 0.625, 1.25, 2.5, 5, 10 and 20ng/ml, and 50µl of each was added to the appropriate wells (see figure 1). 75µl of conjugate (appropriate hapten-HRP) diluted in Tris buffer (pH 7.2) containing EDTA, D-mannitol, sucrose, thimerosal and BSA, was added to each of the wells. The appropriate dilution of conjugate was also determined using standard ELISA checkerboard techniques. The plate was incubated at 25°C for 1 hour. Excess unbound conjugate was removed by washing 6 times over a 10 minute period with TBST. 125µl oftetramethylbenzidine (TMB) substrate solution was added to each well of the plate that was then incubated for 20 minutes in the dark at room temperature. The reaction was terminated by addition of 125µl 0.2M H2SO4 to each well. The absorbance was then measured at 450nm using a microtiter plate reader. The data are inputted to a computer program called 'KC Junior'. It is a 4 parameter fit curve and allow the calculatation of concentrations between the standard runs. This program is used to calculate the IC50s by dividing the 0ng/ml OD value by 2 and obtaining the concentration value from the curve for this OD.
In a similar manner to that described above, the wells of a 96-well microtiter plate were coated with the IgG fraction of the antiserum raised to Immunogens IV, V, VII or VIII. Standard solutions (RCS-8 for Immunogen V) were prepared in TBST at 0, 1.25, 2.5, 5, 10, 20, 40 and 80ng/ml and conjugate was employed as detection reagent.
(§2) The data set our in Tables 3 and 4 are generated using antibodies raised against the indicated Immunogens in a competitive binding assay with the indicated tracers, using the indicated standards: Table 2
(§3) In order to determine the specificity of the competitive ELISAs, standard solutions of a range of structurally similar synthetic cannabinoids and their metabolites were prepared in TBST. Using the calibration curves generated and employing a single level of cross reactants, these were used to determine the cross-reactivity of each immunoassay with these substances. Table 4: Cross reactivity of the competitive ELISAs for synthetic cannabinoids and their metabolites

Antibody to Immunogen VI = conditions: Cross-reactants at 100 ng/ml, 1000ng/ml, single level of cross reactants
Procedure: as §1, §2, §3

[1] = tested on: Antibody to Immunogen III
Procedure: as §1
In a similar manner to that described above, the wells of a 96-well microtiter plate were coated with the IgG fraction of the antiserum raised to Immunogens I, II or III. Standard solutions (JWH-250 for Immunogen III) were applied at 0, 0.625, 1.25, 2.5, 5, 10, 20 and 40ng/ml and conjugate was employed as detection reagent.
as §2, §3

[2] = Cross-reactants at 100 ng/ml, 1000ng/ml, single level of cross reactants
[3] = listed as JWH-164 (JWH-081 7-methoxynaphthyl isomer)

| SMILES | %B/B0 (Antibody to Immunogen V) [%] | %B/B0 (Antibody to Immunogen VI) [%] | %B/B0 [1, 2] [%] | further results |
| --- | --- | --- | --- | --- |
| CCCCn1cc(C(=O)c2ccc(C)c3ccccc23)c2ccccc21 [JWH-073 4-methylnaphthyl analogue] | 65.84 | 70.97 | 78.03 |  |
| CC(O)CCn1cc(C(=O)c2cccc3ccccc23)c2ccccc21 (centres unmarked) [JWH-073 N-(3-hydroxybutyl) metabolite] | 63.79 | 72.55 | 94.05 |  |
| O=C(c1cccc2ccccc12)c1cn(CCCCO)c2ccccc12 [JWH-073 N-(4-hydroxybutyl) metabolite] | 63.73 | 70.57 | 87.63 |  |
| O=C(O)CCCn1cc(C(=O)c2cccc3ccccc23)c2ccccc21 [JWH-073 N-butanoic acid metabolite] | 70.75 | 76.27 | 97.45 |  |
| CCCCn1cc(C(=O)c2cccc3ccccc23)c2ccccc21 [JWH-073] | 66.65 | 74.80 | 81.25 |  |
| CCCCCn1cc(C(=O)c2c(OC)ccc3ccccc23)c2ccccc21 [JWH-081 2-methoxynaphthyl isomer or (JWH-267)] | 70.37 | 86.87 | 85.59 |  |
| CCCCCn1cc(C(=O)c2cccc3c(OC)cccc23)c2ccccc21 [JWH-081 5-methoxynaphthyl isomer] | 90.40 | 77.74 | 76.35 |  |
| CCCCCn1cc(C(=O)c2cccc3ccc(OC)cc23)c2ccccc21 [JWH-081 7-methoxynaphthyl isomer (JWH-164)] | 87.25 | 92.27 | 75.18 | %B/B0 (Antibody to Immunogen V; [3]): 82.81%; %B/B0 (Antibody to Immunogen VI; [3]): 89.29%; %B/B0 ([1]; Cross-reactants at 100 ng/ml, 1000ng/ml, single level of cross reactants, listed as JWH-164 (JWH-081 7-methoxynaphthyl isomer)): 72.63% |
| COc1ccc(C(=O)c2cn(CCCCCO)c3ccccc23)c2ccccc12 [JWH-081 N-(5-hydroxypentyl) metabolite] | 72.78 | 69.47 | 76.44 |  |
| CCCCCn1c(C)c(C(=O)c2ccc(OC)c3ccccc23)c2ccccc21 [JWH-098] | 81.09 | 78.96 | 74.71 |  |
| Cc1ccc(C(=O)c2cn(CCCCCO)c3ccccc23)c2ccccc12 [JWH-122 N-(5-hydroxypentyl) metabo lite] | 68.77 | 71.84 | 81.72 |  |
| CCCCCn1cc(C(=O)c2ccc(C)c3ccccc23)c2ccccc21 [JWH-122] | 69.63 | 75.29 | 69.90 |  |
| CCCC(C)(C)c1ccc2c(c1)OC(C)(C)[C@@H]1CC=C(C)C[C@@H]21 [JWH-133] | 90.40 | 93.73 | 97.40 |  |
| CCCCCn1cc(C(=O)c2ccc(CCC)c3ccccc23)c2ccccc21 [JWH-182] | 82.38 | 85.69 | 76.14 |  |
| O=C(c1ccc2ccccc2c1)c1cn(CCN2CCOCC2)c2ccccc12 [JWH-200 2'-naphthyl isomer] | 75.36 | 20.66 | 99.13 |  |
| O=C(c1cccc2ccccc12)c1cn(CCN2CCOCC2)c2cccc(O)c12 [JWH-200 4-hydroxyindole metabolite] | 74.79 | 90.44 | 95.93 |  |
| O=C(c1cccc2ccccc12)c1cn(CCN2CCOCC2)c2ccc(O)cc12 [JWH-200 5-hydroxyindole metabolite] | 82.38 | 93.65 | 96.49 |  |
| O=C(c1cccc2ccccc12)c1cn(CCN2CCOCC2)c2cc(O)ccc12 [JWH-200 6-hydroxyindole metabolite] | 69.91 | 88.68 | 95.45 |  |
| CCCCCn1cc(C(=O)Cc2ccc(OC)cc2)c2ccccc21 [JWH-201] | 68.62 | 69.32 | 27.93 |  |

| SMILES | %B/B0 (Antibody to Immunogen V) [%] | %B/B0 (Antibody to Immunogen VI) [%] | %B/B0 [1, 2] [%] | further results |
| --- | --- | --- | --- | --- |
| CCCCCn1cc(C(=O)Cc2ccccc2Cl)c2ccccc21 [JWH-203] | 15.33 | 83.09 | 18.15 |  |
| CCCCCn1cc(C(=O)Cc2ccc(Cl)cc2)c2ccccc21 [JWH-206 (JWH-203 4-chloro isomer)] | 51.00 | 78.35 | 26.33 |  |
| CCCCCn1cc(C(=O)c2c(CC)ccc3ccccc23)c2ccccc21 [JWH-210 2-ethylnaphthyl isomer] | 85.10 | 89.90 | 85.02 |  |
| CCCCCn1cc(C(=O)c2ccc(CC)c3ccccc23)c2cc(O)ccc21 [JWH-210 5-hydroxyindole metabolite] | 79.94 | 86.92 | 87.01 |  |
| CCCCCn1cc(C(=O)c2cccc3ccc(CC)cc23)c2ccccc21 [JWH-210 7-ethylnaphthyl isomer or JWH-234] | 85.10 | 87.07 | 73.32 |  |
| CCc1ccc(C(=O)c2cn(CCCCCC(=O)O)c3ccccc23)c2ccccc12 [JWH-210 N-(5-carboxypentyl) metabo lite] | 70.77 | 63.50 | 94.24 |  |
| CCCCCn1cc(C(=O)c2ccc(CC)c3ccccc23)c2ccccc21 [JWH-210] | 70.20 | 72.07 | 69.64 |  |
| CCCCCn1cc(C(=O)Cc2ccccc2OC)c2ccccc21 [JWH-250, 2-(2-methoxyphenyl)-1-(1-pentyl-1H-indol-3-yl)ethanone] | 8.74 | 82.17 | 11.91 | IC50 ([1]; standard JWH-250, standard concentration which produces 50% B/B0): 3.850 ng/mL; %B/B0 ([1]; standard curve, JWH-250 1 ng/ml (first row printed 1)): 84%; %B/B0 ([1]; standard curve, JWH-250 1 ng/ml (second row printed 1)): 70%; %B/B0 ([1]; standard curve, JWH-250 3 ng/ml): 59%; %B/B0 ([1]; standard curve, JWH-250 5 ng/ml): 43%; %B/B0 ([1]; standard curve, JWH-250 10 ng/ml): 38%; %B/B0 ([1]; standard curve, JWH-250 20 ng/ml): 29%; %B/B0 ([1]; standard curve, JWH-250 40 ng/ml): 23% |
| CCCCCn1cc(C(=O)Cc2ccccc2C)c2ccccc21 [JWH-251] | 13.61 | 79.72 | 17.28 |  |
| CCCCCn1cc(C(=O)Cc2cccc(OC)c2)c2ccccc21 [JWH-302] | 32.66 | 71.16 | 19.97 |  |
| CCCCCn1cc(C(=O)c2cccc3c(Cl)cccc23)c2ccccc21 [JWH-398 5-chloronaphthyl isomer] | 70.34 | 76.13 | 64.92 |  |
| O=C(c1ccc(Cl)c2ccccc12)c1cn(CCCCCO)c2ccccc12 [JWH-398 N-(5-hydroxypentyl) metabo lite] | 55.87 | 69.24 | 76.01 |  |
| CCCCCn1cc(C(=O)c2ccc(Cl)c3ccccc23)c2ccccc21 [JWH-398] | 65.76 | 72.30 | 71.37 |  |
| O=C(c1cccc2ccccc12)c1c[nH]c2ccccc12 [N-desalkyl JWH-018: LK1012 10CD194] | 81.80 | 87.49 | 99.73 |  |
| CCCCCn1cc(C(=O)c2ccccc2OC)c2ccccc21 [RCS-4 2-methoxy isomer] | 68.38 | 81.06 | 64.43 |  |
| CCCCCn1cc(C(=O)c2cccc(OC)c2)c2ccccc21 [RCS-4 3-methoxy isomer] | 66.18 | 41.84 | 58.00 |  |
| COc1ccc(C(=O)c2cn(CCCC(C)O)c3ccccc23)cc1 (centres unmarked) [RCS-4 N-(4-hydroxypentyl) metabolite] | 71.93 | 5.69 | 66.40 |  |
| COc1ccc(C(=O)c2cn(CCCCCC(=O)O)c3ccccc23)cc1 [RCS-4 N-(5-carboxypentyl) metabolite] | 60.79 | 4.25 | 91.87 |  |
